Data: publication PMC8328489, “Automated Synthesis and Initial Evaluation of (4′-Amino-5′,8′-difluoro-1′H-spiro[piperidine-4,2′-quinazolin]-1-yl)(4-[^18F]fluorophenyl)methanone for PET/MR Imaging of Inducible Nitric Oxide Synthase” (Molecular Imaging, 2021)
Where two headings read alike, the source gives them in different places.

Tests used:
[1] = Log P measurement (1-octanol/phosphate buffer, UV); format: physicochemical; conditions: 1-octanol / 0.02 M phosphate buffer; 1-octanol / phosphate buffer pH 7.4
Experimental: The partition coefficient of FBAT, determined between 1-octanol and 0.02 M phosphate buffer at pH 7.4, was measured by UV spectrophotometer (SPARK 10 M from Tecan) at wavelength 230 nm.

nNOS = system: nNOS; set-up: method as in PMID 11327580; conditions: cited from earlier work
iNOS [2] = conditions: cited from earlier work
eNOS = conditions: cited from earlier work; for selectivity vs. eNOS: iNOS vs. eNOS
[3] = dog, 10 min postinjection; cited from earlier work
[4] = within 5 min postinjection; cited from earlier work
[5] = system: murine microglial BV2 cells; experiment: LPS-dependent nitric oxide (NO) production, Griess assay; format: cell-based; conditions: pretreatment 0.1 or 1 mM
Experimental: Briefly, murine microglial BV2 cells were cultured in high-glucose Dulbecco's modified Eagle's medium (DMEM) supplemented with 100 U/mL penicillin. The cells were cultured in 6-well plates (~50,000 cells/well) in a humidified 5% CO2 atmosphere at 37°C until ∼60–70% confluent, washed three times with fresh media, and cultured in complete media containing LPS (0, 50, 100, or 200 ng/mL, Sigma-Aldrich, St. Louis, MO, USA). At the indicated time points, the culture media were harvested.
To assay NO, 100 μL aliquots of culture media were added to 100 μL of Griess reagent (1% sulfanilamide in 5% H3PO4) in 96-well plates, incubated at room temperature for 10 min; then, 50 μL NED Griess reagent (0.1% N-naphthyl-ethylenediamine dihydrochloride) was added and incubated for 10 min, and the absorbance values were determined at 540 nm using a TECAN Sunrise ELISA Reader. Fresh culture medium was used as a blank. The concentrations of nitrite were determined by comparison with a standard curve of sodium nitrite prepared in cell culture media.
(§1) iNOS is the enzyme responsible for NO generation in BV2 cells; therefore, accumulation of [^18F]FBAT in BV2 cells before or after iNOS inhibitor versus NO production was also assessed.

iNOS [6] = experiment: Immunohistochemistry of iNOS in brain sections; format: in vivo, C57BL/6 mice; conditions: pretreatment, vs LPS 3 h group
Experimental: After imaging, mice were terminally anesthetized with ketamine/xylazine and perfused with 4% paraformaldehyde, and the brains were dissected, postfixed overnight in 4% paraformaldehyde at 4°C. Five-micrometer thick paraffin-embedded brain tissues were deparaffinized, rehydrated, microwaved in 10 mM citrate buffer (pH 6.0) at 100°C for 10 min for antigen retrieval, washed, incubated in 3% […] for 15 min at RT to inhibit endogenous peroxidases, and blocked in blocking solution for 60 min at RT.
Sections were incubated with primary NOS2/NOS1 antibodies (Cat# MAB 1627; Abnova, Walnut, CA, USA) diluted 1 : 100 overnight at 4°C, developed using the Vectastain Elite kit (Vector Laboratories, Burlingame, CA) following the manufacturer's instructions, and examined using an AxioScope A1 microscope (Zeiss, Oberkochen, Germany) equipped with an Axiocam 512 color digital camera (Zeiss).
The immunohistochemistry images were converted into 8-bit grayscale images in the range. Immunostaining intensity was manually measured in the region of interest (ROI). The median (25%, 75% interquartile range) percentage score for each group (control, LPS 3 h, and LPS 24 h) was calculated as the sum of the individual number of slides within the group.

iNOS [7] = target: T1, iNOS (Mus musculus, UniProt P29477); experiment: In vivo brain PET/MR imaging of LPS-induced iNOS expression (SUV, SUR, AUC) incl. aminoguanidine blocking; set-up: species or system C57BL/6 mice; conditions: 50 mg/kg i.p. pretreatment
T1 construct: tracer to detect iNOS expression in mice injected with lipopolysaccharide (LPS) to induce brain inflammation; from tissue; host or cells: brain of living C57BL/6 mice (LPS-induced); fixed brain sections for IHC
Experimental: For the imaging experiments, twelve C57BL/6 mice were injected i.p. with 0.9% NaCl, eighteen mice were injected i.p. with 0.1 mL of LPS in saline (5 mg/kg), and six mice were injected i.p. with aminoguanidine (Sigma-Aldrich) 30 min prior to 5 mg/kg LPS. In vivo imaging was performed 3 h or 24 h after injection of LPS; then, the mice were immediately humanely euthanized and the brains were removed for immunostaining.
Mice (n = 30) were anesthetized with 2% isoflurane (in oxygen) and injected with [^18F]FBAT (11.1 MBq; 0.3 mCi) via the tail vein. Dynamic PET images were obtained in fully three-dimensional list mode for 30 min using a small animal SuperArgus 2r PET system (SEDECAL, Madrid, Spain) or 7T PETMR Inline (Bruker, Rheinstetten, Germany; energy window, 350-650 keV; timing window, 6 ns). Images were acquired every 10 s for 12 images, 60 s for three images, 300 s for three images, or 600 s for […]. The anatomical structure of the brain was imaged using T2 MRI. The MRI sequences included 0.5 mm thick T2 Turbo RARE high-resolution images (TR = 3000 ms, TE, 46 ms, matrix, 512 × 256, average, 40, slice number, 30, field of view, 20 × 10 mm).
After determining the optimal imaging time point for [^18F]FBAT, we performed a blocking study using a selective iNOS inhibitor to assess the specificity of the tracer for iNOS. Separate 7T PET/MR studies with [^18F]FBAT were performed for mice (n = 6) administered a bolus of aminoguanidine (50 mg/kg i.p.) 30 min prior to administration of [^18F]FBAT. The time course of [^18F]FBAT radioactivity in the brain after administration of the iNOS inhibitor was assessed and compared to that of the mice in the LPS 3 h group.
Images were reconstructed by the Fourier rebinning algorithm and two-dimensional filtered back projection using a ramp filter with a cutoff at Nyquist. The regional radioactivity concentration (kBq/cc) of [^18F]FBAT was estimated from the mean pixel values within the region of interest (ROI) corresponding to MR images of various organs and regions of the brain. ROI for carotid artery, heart muscle, lung, liver, spleen, and kidney were defined and time activity curves (TACs) generated. TACs for whole brain, cortex, cerebellum, and brainstem were also determined as described above.
The concentration of radioactivity (kBq/cc, μCi/cc) was converted to standardized uptake value (SUV), and the mean and standard deviation (SD) of radiotracer accumulation values were calculated for different organs and regions of the brain. Data were analyzed with PMOD 4.0 software (PMOD Technologies Ltd., Zurich, Switzerland).

[8] = system: murine microglial BV2 cells; experiment: In vitro [^18F]FBAT uptake assay; format: cell-based; conditions: pretreatment 0.1 mM or 1 mM for 1 h
Experimental: BV2 cells were cultured as described above, washed three times with fresh medium, pretreated with a selective iNOS inhibitor, aminoguanidine (AMG), (0, 1, or 0.1 mM) for 1 h, and then treated with cell culture media containing LPS and the inhibitor. At the indicated time points, the cells were washed thrice with fresh cell culture media, then incubated in fresh cell culture media continuing the radiotracer [^18F]FBAT at 0.37 MBq/mL for 15, 30, or 60 min, harvested by gentle scraping, and pelleted by centrifugation at 1500 g for 2 min. The weight of the cell pellet and 0.1 mL of the radioactive supernatant was determined. A Packard 5500 gamma counter (PerkinElmer, Billerica, MA, USA) was used to quantify radioactivity as cpm/g cells or cpm/mL media, respectively. Cell-to-medium radioactivity concentration ratios were calculated and plotted over time to evaluate the kinetics of accumulation of the radiotracer.
as §1

## NC1=NC2(CCN(C(=O)c3ccc(F)cc3)CC2)Nc2c(F)ccc(F)c21 [FBAT, (4′-amino-5′,8′-difluoro-1′H-spiro[piperidine-4,2′-quinazolin]-1-yl)(4-fluorophenyl)methanone]
[1]
  logP: 1.4 ± 0.27

## NC1=NC(c2ccc(F)cc2)Cc2cccc(F)c21 (stereo not drawn) [FFDI, 8-fluoro-3-(4-fluorophenyl)-3,4-dihydro-1-isoquino-linamine]
nNOS
  selectivity for iNOS vs. nNOS: 100 fold
iNOS [2]; read-out: IC50 (affinity for iNOS)
  IC50: 0.16 µM
eNOS
  selectivity for iNOS vs. eNOS: ~ 1000 fold

## COC(=O)[C@@H](N)CCCN=C(N)N[N+](=O)[O-] [[^11C]L-NAME, N-omega-nitro-L-arginine [^11C]methyl ester]
iNOS [2]; read-out: iNOS IC50
  IC50: 20 µM
[3]
  fraction of radioactivity present as [^11C]methanol (metabolite): 65%

## CSC(=N)N [[^11C]MITU, S-[^11C]methylisothiourea]
iNOS [2]; read-out: iNOS IC50
  IC50: 3 µM

## [11CH3]SC(=N)N [[^11C]MITU, S-[^11C]methylisothiourea]
eNOS
  selectivity vs. eNOS: 2.3 fold

## Cc1cc(N)nc(CC(C)F)c1 (stereo not drawn) [[^18F]9, [^18F]6-(2-fluoropropyl)-4-methyl-pyridin-2-amine]
[4]
  parent fraction of activity in the blood: 40.3%

## N=C(N)SCC[18F] [[^18F]FEITU, S-(2-[^18F]fluoroethyl)isothiourea]
iNOS [2]; read-out: iNOS IC50
  IC50: 0.14 µM
eNOS
  selectivity vs. eNOS: 9 fold

## N=C(N)NN [aminoguanidine, reference compound]
[5]
  effect on LPS-induced NO production: completely abolished
iNOS [6]
  effect on LPS-induced iNOS immunoactivity, brainstem: significantly reduced
  effect on LPS-induced iNOS immunoreactivity, cortex: significantly reduced
iNOS [7]
  effect on [^18F]FBAT accumulation (SUV, AUC, Vt) in brain of LPS-induced mice: significantly decreased
iNOS [7]; listed as Aminoguanidine
  effect on [^18F]FBAT accumulation (SUV, AUC, Vt) in brain of LPS-induced mice: significantly reduced
[8]
  effect on LPS-induced [^18F]FBAT accumulation in BV2 cells: inhibited
[8]; listed as AMG
  effect on LPS-induced [^18F]FBAT accumulation in BV2 cells: significantly reduced
